Assay results reported in US6111080A, “Monoclonal antibodies” (Washington University, priority 1993, dated 2000).

System: RGD-binding receptor on PMN (B6H12 antigen, heterodimer of 140 kd and 105 kd)
Assay: Cytochrome c-RGDS binding assay (inhibition of 125I-cc-RGDS specific binding to PMN)
Parameters: species or system human
Conditions: unlabelled inhibitor 500 μg/ml; 40 μg 125I-cc-RGDS, 1.0 × 10^6 PMN, 5,000 units catalase in 1 ml, 30 min at 37° C.; relative to cc-C
Description: Cytochrome c-RGDS was radioiodinated by chloroglycoluril [Markwell and Fox, Biochemistry 17, 4807-4817 (1978)] for 15 min at 0° C. PMN (5.0×10^5) in HBSS^++ -1% OVA were incubated with 10 μg of radiolabelled cc-RGDS in the presence of 5K U/ml of catalase and 293 μg of unlabelled cc-C in a final volume of 250 μl. The reaction mixtures were incubated in 1.5 ml Eppendorf tubes for 30 min at 37° C. The mixtures were overlayered on Versilube (General Electric) and centrifuged at 12,000×g to assess pellet associated radioactivity. Specific binding was determined by subtracting the radioactivity bound in the presence of […] of unlabelled cc-RGDS from the total radioactivity. Unlabelled cc-C was included in the reaction to control for any binding due to cytochrome c and not specifically due to the RGDS moiety. For inhibition tests, the various inhibitors were included in the reaction at the indicated concentrations. Antibodies were incubated with the PMN at the indicated concentrations for 15 min at room temperature prior to the addition of the other reactants.
^a PMN (1.0 × 10^6) were incubated with 40 μg of ^12
Icc-RGDS with the indicated concentrations of unlabelled inhibitors in th
presence of 5,000 units of catalase in 1 ml for 30 min at 37° C.
The PMN were centrifuged through oil and the pelletassociated counts
assessed. […]
^b Calculated from the mean cpm's. […]

GRGDSC was tested, and the “% I (percent inhibition of cc-RGDS specific binding to PMN)” value was 79.6%.
